Results reported in the supplement of paper PMC10307832.

Key:
Assay in all cases: relative viability (nuclei count vs DMSO), 5 days (fraction); higher = more cells survive
[1] = compound: C1CC(C1)(C(=O)O)C(=O)O.[NH2-].[NH2-].[Pt+2] [Carboplatin] + COc1cc2c(Oc3ccc(NC(=O)C4(C(=O)Nc5ccc(F)cc5)CC4)cc3F)ccnc2cc1OCCCN1CCOCC1 [Foretinib] (partner 0.25 µM)
Method in brief: (§1)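 Relative viability is defined as nuclei in treated wells over nuclei in vehicle wells. Duplicate plates were run and medians reported. Lung cancer cell lines in 1536-well plates were dosed by pin tool one day after seeding, with one drug or with a fixed anchor-drug dose plus five library-drug doses (not always all listed) in √10 steps, and nuclei were counted after 5 days.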

[2] = compound: C1CC(C1)(C(=O)O)C(=O)O.[NH2-].[NH2-].[Pt+2] [Carboplatin] + CS(=O)(=O)CCNCc1ccc(-c2ccc3ncnc(Nc4ccc(OCc5cccc(F)c5)c(Cl)c4)c3c2)o1 [Lapatinib] (partner 2 µM)
Method in brief: as §1

[3] = compound: CC[C@H](C)N1C=C(C2=C(C=C(C=C21)C3=CN=C(C=C3)N4CCNCC4)C(=O)NCC5=C(C=C(NC5=O)C)C)C [GSK126] + Cc1cc(Nc2cc(N3CCN(C)CC3)nc(Sc3ccc(NC(=O)C4CC4)cc3)n2)n[nH]1 [Tozasertib] (partner 0.1 µM)
Method in brief: as §1

[4] = compound: CC[C@H](C)N1C=C(C2=C(C=C(C=C21)C3=CN=C(C=C3)N4CCNCC4)C(=O)NCC5=C(C=C(NC5=O)C)C)C [GSK126] + Nc1ncn([C@H]2C[C@H](O)[C@@H](CO)O2)c(=O)n1 [Decitabine] (partner 2 µM)
Method in brief: as §1

Cell Line | relative viability ([1]; first compound 0.08 µM) | relative viability ([1]; first compound 0.253 µM) | relative viability ([1]; first compound 0.8 µM) | relative viability ([1]; first compound 2.53 µM) | relative viability ([1]; first compound 8 µM) | relative viability ([2]; first compound 0.08 µM) | relative viability ([2]; first compound 0.253 µM) | relative viability ([2]; first compound 0.8 µM) | relative viability ([2]; first compound 2.53 µM) | relative viability ([2]; first compound 8 µM) | relative viability ([3]; first compound 0.08 µM) | relative viability ([3]; first compound 0.253 µM) | relative viability ([3]; first compound 0.8 µM) | relative viability ([3]; first compound 2.53 µM) | relative viability ([3]; first compound 8 µM) | relative viability ([4]; first compound 0.08 µM) | relative viability ([4]; first compound 0.253 µM) | relative viability ([4]; first compound 0.8 µM) | relative viability ([4]; first compound 2.53 µM) | relative viability ([4]; first compound 8 µM)
LU99A | 0.794 | 0.749 | 0.752 | 0.713 | 0.522 | 0.988 | 1.04 | 1.01 | 0.917 | 0.795 | 0.259 | 0.268 | 0.26 | 0.198 | 0.21 | 0.986 | 0.915 | 1.03 | 0.916 | 0.999
LXF-289 | 1.02 | 0.996 | 0.992 | 0.918 | 0.992 | 0.908 | 0.936 | 0.91 | 0.89 | 0.891 | 0.162 | 0.149 | 0.218 | 0.176 | 0.181 | 0.38 | 0.36 | 0.395 | 0.388 | 0.374
NCI-H23 | 1.02 | 1.01 | 0.886 | 0.846 | 0.826 | 1.16 | 1.25 | 1 | 1.02 | 0.783 | 0.374 | 0.374 | 0.354 | 0.624 | 0.266 | 0.314 | 0.337 | 0.3 | 0.268 | 0.334
NCI-H322M | 1.12 | 0.943 | 0.895 | 0.861 | 0.77 | 0.653 | 0.639 | 0.55 | 0.561 | 0.609 | 0.501 | 0.51 | 0.49 | 0.472 | 0.499 | 0.656 | 0.676 | 0.758 | 0.733 | 0.754
NCI-H358 | 0.736 | 0.783 | 0.721 | 0.764 | 0.651 | 0.483 | 0.474 | 0.538 | 0.485 | 0.543 | 0.105 | 0.116 | 0.133 | 0.12 | 0.122 | 0.231 | 0.2 | 0.207 | 0.229 | 0.218
NCI-H460 | 0.98 | 1.03 | 0.968 | 0.716 | 0.322 | 0.977 | 0.87 | 0.957 | 0.779 | 0.336 | 0.419 | 0.33 | 0.574 | 0.352 | 0.103 | 0.605 | 0.495 | 0.468 | 0.37 | 0.446
NCI-H520 | 0.905 | 0.815 | 0.795 | 0.831 | 0.575 | 1.07 | 0.985 | 1.03 | 0.784 | 0.59 | 0.594 | 0.426 | 0.48 | 0.443 | 0.352 | 0.611 | 0.505 | 0.487 | 0.494 | 0.557
NCI-H596 | 0.828 | 1.01 | 0.707 | 0.59 | 0.431 | 1.21 | 1 | 1.07 | 0.943 | 0.886 | 0.933 | 1.03 | 0.894 | 0.89 | 0.933 | 1.09 | 0.882 | 1.04 | 1.05 | 1.06
NCI-H647 | 1.15 | 1.24 | 1.13 | 1.17 | 0.84 | 1.29 | 1.1 | 1.02 | 0.98 | 0.862 | 0.375 | 0.268 | 0.288 | 0.282 | 0.126 | 0.445 | 0.356 | 0.484 | 0.383 | 0.437
NCI-H650 | 1.01 | 1.14 | 0.941 | 0.91 | 0.614 | 1.06 | 0.852 | 0.876 | 0.976 | 0.521 | 0.783 | 0.744 | 0.702 | 0.691 | 0.717 | 0.33 | 0.293 | 0.311 | 0.299 | 0.322
NCI-H661 | 1.01 | 0.982 | 0.984 | 1 | 0.842 | 0.649 | 0.511 | 0.331 | 0.369 | 0.459 | 0.355 | 0.336 | 0.344 | 0.343 | 0.332 | 0.626 | 0.506 | 0.498 | 0.535 | 0.563
NCI-H727 | 1.1 | 0.967 | 0.9 | 0.792 | 0.637 | 0.998 | 0.782 | 0.85 | 0.745 | 0.448 | 0.633 | 0.648 | 0.586 | 0.676 | 0.438 | 1.01 | 1.03 | 0.804 | 0.89 | 0.864
NCI-H838 | 1.16 | 1.06 | 0.934 | 0.931 | 0.669 | 1.05 | 1.1 | 1.04 | 0.951 | 1.04 | 0.293 | 0.269 | 0.255 | 0.261 | 0.242 | 0.52 | 0.492 | 0.451 | 0.508 | 0.502
NCI-H1355 | 0.979 | 0.994 | 1.02 | 0.956 | 0.895 | 1.12 | 1.11 | 1.09 | 1.06 | 0.93 | 0.573 | 0.495 | 0.546 | 0.533 | 0.378 | 0.391 | 0.334 | 0.318 | 0.336 | 0.416
NCI-H1395 | 1.03 | 1.03 | 0.805 | 0.709 | 0.726 | 1.23 | 1.06 | 0.984 | 0.841 | 0.607 | 0.787 | 0.763 | 0.831 | 0.683 | 0.669 | 0.718 | 0.671 | 0.713 | 0.736 | 0.652
NCI-H1437 | 1.28 | 1.34 | 1.22 | 1.2 | 1.08 | 0.869 | 0.832 | 0.838 | 0.887 | 0.641 | 0.42 | 0.433 | 0.4 | 0.35 | 0.388 | 0.584 | 0.569 | 0.536 | 0.499 | 0.527
